The test addresses T1, STING (Homo sapiens, UniProt Q86WV6, G230A/H232R/R293Q/R71H).
T1 construct: host or cells: THP1-Dual KO-IFNAR2 cells
The test can be described thus: STING reporter assay: luciferase reporter activity in THP1-Dual KO-IFNAR2 cells stimulated with 2′3′cGAMP. Type of test: cell-based. The following applies: 15 μM 2′3′cGAMP, 24h, read-out: hSTING EC50. How it is done: STING pathway activation by the compounds described herein was measured using THP 1-Dual™ cells (KO-IFNAR2).
THP1-Dual™ KO-IFNAR2 Cells (obtained from invivogen) were maintained in RPMI, 10% FCS, 5 ml P/S, 2 mM L-glut, 10 mM Hepes, and 1 mM sodium pyruvate. Compounds were spotted in empty 384 well tissue culture plates (Greiner 781182) by Echo for a final concentration of 0.0017-100 μM. Cells were plated into the TC plates at 40 μL per well, 2×10E6 cells/mL. For activation with STING ligand, 2′3′cGAMP (MW 718.38, obtained from Invivogen), was prepared in Optimem media.
The following solutions were prepared for each 1×384 plate: • Solution A: 2 mL Optimem with one of the following stimuli: • 60 μL of 10 mM 2′3′cGAMP→150 μM stock • Solution B: 2 mL Optimem with 60 μL Lipofectamine 2000→Incubate 5 min at RT
2 mL of solution A and 2 ml Solution B was mixed and incubated for 20 min at room temperature (RT). 20 μL of transfection solution (A+B) was added on top of the plated cells, with a final 2′3′cGAMP concentration of 15 μM. The plates were then centrifuged immediately at 340 g for 1 minute, after which they were incubated at 37° C., 5% CO2, >98% humidity for 24h. Luciferase reporter activity was then measured. EC50 values were calculated by using standard methods known in the art.
Luciferase reporter assay: 10 μL of supernatant from the assay was transferred to white 384-plate with flat bottom and squared wells. One pouch of QUANTI-Luc™ Plus was dissolved in 25 mL of water. 100 μL of QLC Stabilizer per 25 mL of QUANTI-Luc™ Plus solution was added. 50 μL of QUANTI-Luc™ Plus/QLC solution per well was then added. Luminescence was measured on a Platereader (e.g., Spectramax I3X (Molecular Devices GF3637001)).
Luciferase reporter activity was then measured. EC50 values were calculated by using standard methods known in the art.
(A reporter such as luciferase makes a cellular process visible.)

T1 sequence (Q86WV6 whole entry R71H/G230A/H232R/R293Q): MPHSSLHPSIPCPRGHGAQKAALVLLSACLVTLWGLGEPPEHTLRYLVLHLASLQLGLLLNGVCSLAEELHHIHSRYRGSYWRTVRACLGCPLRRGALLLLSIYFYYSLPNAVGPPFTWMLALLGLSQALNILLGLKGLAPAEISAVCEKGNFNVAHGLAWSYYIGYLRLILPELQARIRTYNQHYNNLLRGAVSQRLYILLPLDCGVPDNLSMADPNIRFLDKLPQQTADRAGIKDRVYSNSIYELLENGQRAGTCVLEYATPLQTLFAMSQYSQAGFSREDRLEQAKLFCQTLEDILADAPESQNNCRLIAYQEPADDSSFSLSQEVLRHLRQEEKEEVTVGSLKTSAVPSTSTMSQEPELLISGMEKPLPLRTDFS

The EC50 is the concentration needed to bring the measured effect to its halfway point. In the case of `CC(=O)Nc1c[nH]c2ccc(-c3cnn([C@H](C)c4cccc(C(F)(F)F)c4)c3)cc12` [Compound 176, (R)-N-(5-(1-(1-(3-(trifluoromethyl)phenyl)ethyl)-1H-pyrazol-4-yl)-1H-indol-3-yl)acetamide], the EC50 was 0.2 to 1 µM.
For `COCCCC(=O)Nc1c[nH]c2ccc(-c3cnn(-c4ccc(C(F)(F)F)cc4)c3)cc12` [Compound 177, 4-methoxy-N-(5-(1-(4-(trifluoromethyl)phenyl)-1H-pyrazol-4-yl)-1H-indol-3-yl)butanamide] the value was 0.04 to 0.2 µM; for `CC(=O)Nc1c[nH]c2ccc(-c3cnn(C(C)c4ccc(C(F)(F)F)cc4)c3)cc12` (stereo not drawn) [Compound 178, N-(5-(1-(1-(4-(trifluoromethyl)phenyl)ethyl)-1H-pyrazol-4-yl)-1H-indol-3-yl)acetamide], 0.2 to 1 µM; for `CC(=O)Nc1c[nH]c2ccc(-c3cnn(C(C)c4cccc(C(F)(F)F)c4)c3)cc12` (stereo not drawn) [Compound 179, N-(5-(1-(1-(3-(trifluoromethyl)phenyl)ethyl)-1H-pyrazol-4-yl)-1H-indol-3-yl)acetamide], 0.2 to 1 µM.
Then `CC(=O)Nc1c[nH]c2ccc(-c3cnn(Cc4cccc(C(F)(F)F)c4)c3)cc12` [Compound 180, N-(5-(1-(3-(trifluoromethyl)benzyl)-1H-pyrazol-4-yl)-1H-indol-3-yl)acetamide], with 0.2 to 1 µM; and `CC(=O)NC(C)(C)C(=O)Nc1c[nH]c2ccc(-c3cnn(-c4ccc(C(F)(F)F)cc4)c3)cc12` [Compound 181, 2-acetamido-2-methyl-N-(5-(1-(4-(trifluoromethyl)phenyl)-1H-pyrazol-4-yl)-1H-indol-3-yl)propanamide], with 5 to 100 µM; and `CC(C)CC(C)(N)C(=O)Nc1c[nH]c2ccc(-c3cnn(-c4ccc(C(F)(F)F)cc4)c3)cc12` (stereo not drawn) [Compound 182, 2-amino-2,4-dimethyl-N-(5-(1-(4-(trifluoromethyl)phenyl)-1H-pyrazol-4-yl)-1H-indol-3-yl)pentanamide], with 5 to 100 µM.
Take `O=C(CNCC(F)(F)F)Nc1c[nH]c2ccc(-c3cnn(-c4ccc(C(F)(F)F)cc4)c3)cc12` [Compound 183, 2-((2,2,2-trifluoroethyl)amino)-N-(5-(1-(4-(trifluoromethyl)phenyl)-1H-pyrazol-4-yl)-1H-indol-3-yl)acetamide]: the concentration giving a half-maximal response (EC50) fell in the range of 1 to 5 µM.
For `NC1(C(=O)Nc2c[nH]c3ccc(-c4cnn(-c5ccc(C(F)(F)F)cc5)c4)cc23)CC(F)(F)C1` [Compound 185, 1-amino-3,3-difluoro-N-(5-(1-(4-(trifluoromethyl)phenyl)-1H-pyrazol-4-yl)-1H-indol-3-yl)cyclobutane-1-carboxamide] the value was 5 to 100 µM; for `O=C(Nc1c[nH]c2ccc(-c3cnn(-c4ccc(C(F)(F)F)cc4)c3)cc12)C1(O)CCCC1` [Compound 186, 1-hydroxy-N-(5-(1-(4-(trifluoromethyl)phenyl)-1H-pyrazol-4-yl)-1H-indol-3-yl)cyclopentane-1-carboxamide], 0.2 to 1 µM.
For `O=C(Nc1c[nH]c2ccc(-c3cnn(-c4ccc(C(F)(F)F)cc4)c3)cc12)C1(O)CCCCC1` [Compound 187, 1-hydroxy-N-(5-(1-(4-(trifluoromethyl)phenyl)-1H-pyrazol-4-yl)-1H-indol-3-yl)cyclohexane-1-carboxamide] the value was 0.2 to 1 µM.
Then `O=C(Nc1c[nH]c2ccc(-c3cnn(-c4ccc(C(F)(F)F)cc4)c3)cc12)C1CCC(CO)CC1` (stereo not drawn) [Compound 188, 4-(hydroxymethyl)-N-(5-(1-(4-(trifluoromethyl)phenyl)-1H-pyrazol-4-yl)-1H-indol-3-yl)cyclohexane-1-carboxamide], with 1 to 5 µM; and `CC(C)(N)CC(=O)Nc1c[nH]c2ccc(-c3cnn(-c4ccc(C(F)(F)F)cc4)c3)cc12` [Compound 189, 3-amino-3-methyl-N-(5-(1-(4-(trifluoromethyl)phenyl)-1H-pyrazol-4-yl)-1H-indol-3-yl)butanamide], with 5 to 100 µM; and `O=C(Nc1c[nH]c2ccc(-c3cnn(-c4ccc(C(F)(F)F)cc4)c3)cc12)C1CC(F)C1` (stereo not drawn) [Compound 190, 3-fluoro-N-(5-(1-(4-(trifluoromethyl)phenyl)-1H-pyrazol-4-yl)-1H-indol-3-yl)cyclobutane-1-carboxamide], with 5 to 100 µM.
With `O=C(Nc1c[nH]c2ccc(-c3cnn(Cc4ccc(C(F)(F)F)nc4)c3)cc12)C1CCC1` [Compound 191, N-(5-(1-((6-(trifluoromethyl)pyridin-3-yl)methyl)-1H-pyrazol-4-yl)-1H-indol-3-yl)cyclobutanecarboxamide], the EC50 was 0.2 to 1 µM.
Then `C[C@@H](O)C(=O)Nc1c[nH]c2cc(F)c(-c3cnn(-c4ccc(C(F)(F)F)cc4)c3)cc12` [Compound 192, (R)-N-(6-fluoro-5-(1-(4-(trifluoromethyl)phenyl)-1H-pyrazol-4-yl)-1H-indol-3-yl)-2-hydroxypropanamide], with 0.2 to 1 µM.
Take `CC(NS(C)(=O)=O)C(=O)Nc1c[nH]c2cc(F)c(-c3cnn(-c4ccc(C(F)(F)F)cc4)c3)cc12` (stereo not drawn) [Compound 193, N-(6-fluoro-5-(1-(4-(trifluoromethyl)phenyl)-1H-pyrazol-4-yl)-1H-indol-3-yl)-2-(methylsulfonamido)propanamide]: the EC50 was in the range of 1 to 5 µM.
Regarding `O=C(Nc1c[nH]c2ccc(-c3cnn(-c4ccc(C(F)(F)F)cc4)c3)cc12)C1(O)COC1` [Compound 194, 3-hydroxy-N-(5-(1-(4-(trifluoromethyl)phenyl)-1H-pyrazol-4-yl)-1H-indol-3-yl)oxetane-3-carboxamide], the half-maximal effective concentration (EC50) lay within 1 to 5 µM.
For `O=C(CC(O)C(F)(F)F)Nc1c[nH]c2ccc(-c3cnn(-c4ccc(C(F)(F)F)cc4)c3)cc12` (stereo not drawn) [Compound 195, 4,4,4-trifluoro-3-hydroxy-N-(5-(1-(4-(trifluoromethyl)phenyl)-1H-pyrazol-4-yl)-1H-indol-3-yl)butanamide] the value was 0.2 to 1 µM; for `O=C(Nc1c[nH]c2ccc(-c3cnn(-c4ccc(C(F)(F)F)cc4)c3)cc12)C(CO)C(F)(F)F` (stereo not drawn) [Compound 196, 3,3,3-trifluoro-2-(hydroxymethyl)-N-(5-(1-(4-(trifluoromethyl)phenyl)-1H-pyrazol-4-yl)-1H-indol-3-yl)propanamide], 1 to 5 µM.
Then `CCC(O)C(=O)Nc1c[nH]c2ccc(-c3cnn(-c4ccc(C(F)(F)F)cc4)c3)cc12` (stereo not drawn) [Compound 197, 2-hydroxy-N-(5-(1-(4-(trifluoromethyl)phenyl)-1H-pyrazol-4-yl)-1H-indol-3-yl)butanamide], with 0.2 to 1 µM; and `CC(C)(O)C(=O)Nc1c[nH]c2ccc(-c3cnn(-c4ccc(C(F)(F)F)cc4)c3)cc12` [Compound 198, 2-hydroxy-2-methyl-N-(5-(1-(4-(trifluoromethyl)phenyl)-1H-pyrazol-4-yl)-1H-indol-3-yl)propanamide], with 1 to 5 µM.
Then `COCC1(C(=O)Nc2c[nH]c3ccc(-c4cnn(-c5ccc(C(F)(F)F)cc5)c4)cc23)CCC1` [Compound 199, 1-(methoxymethyl)-N-(5-(1-(4-(trifluoromethyl)phenyl)-1H-pyrazol-4-yl)-1H-indol-3-yl)cyclobutane-1-carboxamide], with 1 to 5 µM; and `CCC(C)(O)C(=O)Nc1c[nH]c2ccc(-c3cnn(-c4ccc(C(F)(F)F)cc4)c3)cc12` (stereo not drawn) [Compound 200, 2-hydroxy-2-methyl-N-(5-(1-(4-(trifluoromethyl)phenyl)-1H-pyrazol-4-yl)-1H-indol-3-yl)butanamide], with 1 to 5 µM.
